# Results published in PubChem BioAssay AID1845197 (Molecular Pharmacology Branch, DTP, NCI, 2023).
# Where “and” joins values, the source holds several entries; their conditions need not be identical. Equal values may be shown once.
# System: 349418-098-R tumor spheroid viability
# Assay: Anticancer human tumor 349418-098-R patient-derived lung adenocarcinoma cell line growth inhibition
# Conditions: spheroids with HUVEC and MSC; for viability, T/C: stronger effect = lower value
# In short: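 Single agents and combinations were tested on spheroids built from tumor cells plus HUVEC and hMSC, at half-log dilutions starting at or near clinical Cmax, else 10 microM; final DMSO 0.25% (v/v).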
# 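Also: spheroids exposed to compound for 7 days before measurement.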
# 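For viability, T/C in this document: percent of vehicle control viability with 100% = DMSO-treated spheroids.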
smiles,measurement,setting,value
CC1COCCN1c1cc(-c2ccnn2C)c2ccnc(-c3ccn[nH]3)c2n1 (configuration not stated) + Cn1nnc2c(C(N)=O)ncn2c1=O,IC50,"curve of first compound, second compound 1 µM",66.4 nM
same,IC50,"curve of first compound, second compound 3.16 µM",64 nM
same,IC50,"curve of first compound, second compound 10 µM",61.4 nM
same,IC50,"curve of first compound, second compound 31.6 µM",67.9 nM
same,IC50,"curve of first compound, second compound 100 µM",52.6 nM
same,"viability, T/C","second compound 1 µM, first compound 0.0316 µM",90.2%
same,"viability, T/C","second compound 1 µM, first compound 0.1 µM",27.8%
same,"viability, T/C","second compound 1 µM, first compound 0.316 µM",11.8%
same,"viability, T/C","second compound 1 µM, first compound 1 µM",11.1%
same,"viability, T/C","second compound 1 µM, first compound 3.16 µM",11.1%
same,"viability, T/C","second compound 1 µM, first compound 10 µM",10.9%
same,"viability, T/C","second compound 3.16 µM, first compound 0.0316 µM",90.5%
same,"viability, T/C","second compound 3.16 µM, first compound 0.1 µM",24.4%
same,"viability, T/C","second compound 3.16 µM, first compound 0.316 µM",12.5%
same,"viability, T/C","second compound 3.16 µM, first compound 1 µM",10.3%
same,"viability, T/C","second compound 3.16 µM, first compound 3.16 µM",11.1%
same,"viability, T/C","second compound 3.16 µM, first compound 10 µM",10.4%
same,"viability, T/C","second compound 10 µM, first compound 0.0316 µM",90.7%
same,"viability, T/C","second compound 10 µM, first compound 0.1 µM",20%
same,"viability, T/C","second compound 10 µM, first compound 0.316 µM",11.9%
same,"viability, T/C","second compound 10 µM, first compound 1 µM",9.88%
same,"viability, T/C","second compound 10 µM, first compound 3.16 µM",11.1%
same,"viability, T/C","second compound 10 µM, first compound 10 µM",9.65%
same,"viability, T/C","second compound 31.6 µM, first compound 0.0316 µM",91.9%
same,"viability, T/C","second compound 31.6 µM, first compound 0.1 µM",28.8%
same,"viability, T/C","second compound 31.6 µM, first compound 0.316 µM",10.5%
same,"viability, T/C","second compound 31.6 µM, first compound 1 µM",9.5%
same,"viability, T/C","second compound 31.6 µM, first compound 3.16 µM",11.8%
same,"viability, T/C","second compound 31.6 µM, first compound 10 µM",10.2%
same,"viability, T/C","second compound 100 µM, first compound 0.0316 µM",77.9%
same,"viability, T/C","second compound 100 µM, first compound 0.1 µM",14.8%
same,"viability, T/C","second compound 100 µM, first compound 0.316 µM",9.79%
same,"viability, T/C","second compound 100 µM, first compound 1 µM",9.43%
same,"viability, T/C","second compound 100 µM, first compound 3.16 µM",9.05%
same,"viability, T/C","second compound 100 µM, first compound 10 µM",9.14%
CC1COCCN1c1cc(-c2ccnn2C)c2ccnc(-c3ccn[nH]3)c2n1 (configuration not stated),"viability, T/C",compound 0.0316 µM,90.1% and 88.7% and 108%
same,"viability, T/C",compound 0.1 µM,48.2% and 41.8% and 114%
same,"viability, T/C",compound 0.316 µM,14.5% and 13% and 23.9%
same,"viability, T/C",compound 1 µM,11.7% and 10.5% and 18.3%
same,"viability, T/C",compound 3.16 µM,12.6% and 11.9% and 16.4%
same,"viability, T/C",compound 10 µM,11.6% (2×) and 11.7%
same,IC50,curve of compound,95.2 nM and 81.8 nM and 224 nM
[2H]c1nc(C)nc([2H])c1-c1cc(NC[C@@H](C)c2cccc3c(C(=O)NC)ccnc23)ncn1 + COc1cc2c(cc1O)CCNC21CSC2c3c(OC(C)=O)c(C)c4c(c3C(COC1=O)N1C(O)C3Cc5cc(C)c(OC)c(O)c5C(C21)N3C)OCO4,IC50,"curve of first compound, second compound 30 pM",> 10000 nM
same,IC50,"curve of first compound, second compound 94.9 pM",> 10000 nM
same,IC50,"curve of first compound, second compound 0.0003 µM",> 10000 nM
same,IC50,"curve of first compound, second compound 0.000949 µM",< 31.6 nM
same,IC50,"curve of first compound, second compound 0.003 µM",< 31.6 nM
same,"viability, T/C","second compound 30 pM, first compound 0.0316 µM",110%
same,"viability, T/C","second compound 30 pM, first compound 0.1 µM",98.4%
same,"viability, T/C","second compound 30 pM, first compound 0.316 µM",111%
same,"viability, T/C","second compound 30 pM, first compound 1 µM",107%
same,"viability, T/C","second compound 30 pM, first compound 3.16 µM",98.2%
same,"viability, T/C","second compound 30 pM, first compound 10 µM",105%
same,"viability, T/C","second compound 94.9 pM, first compound 0.0316 µM",99%
same,"viability, T/C","second compound 94.9 pM, first compound 0.1 µM",99.5%
same,"viability, T/C","second compound 94.9 pM, first compound 0.316 µM",94.2%
same,"viability, T/C","second compound 94.9 pM, first compound 1 µM",107%
same,"viability, T/C","second compound 94.9 pM, first compound 3.16 µM",103%
same,"viability, T/C","second compound 94.9 pM, first compound 10 µM",98.7%
same,"viability, T/C","second compound 0.0003 µM, first compound 0.0316 µM",96.1%
same,"viability, T/C","second compound 0.0003 µM, first compound 0.1 µM",93.7%
same,"viability, T/C","second compound 0.0003 µM, first compound 0.316 µM",92.7%
same,"viability, T/C","second compound 0.0003 µM, first compound 1 µM",93.6%
same,"viability, T/C","second compound 0.0003 µM, first compound 3.16 µM",88%
same,"viability, T/C","second compound 0.0003 µM, first compound 10 µM",86.2%
same,"viability, T/C","second compound 0.000949 µM, first compound 0.0316 µM",0.58%
same,"viability, T/C","second compound 0.000949 µM, first compound 0.1 µM",0.76%
same,"viability, T/C","second compound 0.000949 µM, first compound 0.316 µM",0.46%
same,"viability, T/C","second compound 0.000949 µM, first compound 1 µM",0.58%
same,"viability, T/C","second compound 0.000949 µM, first compound 3.16 µM",0.39%
same,"viability, T/C","second compound 0.000949 µM, first compound 10 µM",0.49%
same,"viability, T/C","second compound 0.003 µM, first compound 0.0316 µM",1.52%
same,"viability, T/C","second compound 0.003 µM, first compound 0.1 µM",1.57%
same,"viability, T/C","second compound 0.003 µM, first compound 0.316 µM",1.35%
same,"viability, T/C","second compound 0.003 µM, first compound 1 µM",1.29%
same,"viability, T/C","second compound 0.003 µM, first compound 3.16 µM",1.6%
same,"viability, T/C","second compound 0.003 µM, first compound 10 µM",2.34%
